Measurements reported in ChEMBL document CHEMBL3885861, “Open TG-GATES”.

Species: Rattus norvegicus
Experiment: Open TG-GATES - Regimen: Single
Type: toxicity, organism-based, Sprague-Dawley
Set-up: regimen Single, gender Male, age 6 weeks
Conditions: in vivo, po, 30 mg/kg, route gavage, dose level High; for APTT / Bas / Eos / Fbg / Hb / Ht / Lym / MCH / MCHC / Mono / Neu / Plat / RBC / Ret / WBC: tissue Blood; for KIDNEY_L / KIDNEY_R / KIDNEY_TOTAL: tissue Kidney; for LIVER: tissue Liver; for ALP / ALT / AST / BUN / CRE / Ca / Cl / DBIL / GLC / IP / K / LDH / Na / PL / RALB / TBIL / TC / TG / TP / gamma-GTP: tissue Plasma

O=C(CCCN1CCC(O)(c2ccc(Cl)cc2)CC1)c1ccc(F)cc1 [HALOPERIDOL]
TERMINAL_BW (3 h): 205 g
APTT (3 h): 17.2 s
Bas (3 h): 0%
Eos (3 h): 0.2%
Fbg (3 h): 207.6 mg/dL
Hb (3 h): 12.8 g/dL
Ht (3 h): 38.4%
Lym (3 h): 70.4%
MCH (3 h): 21.5 pg
MCHC (3 h): 33.3%
Mono (3 h): 6%
Neu (3 h): 23.4%
Plat (3 h): 97 x10_4/uL
RBC (3 h): 593.6 x10_4/ul
Ret (3 h): 8.9%
WBC (3 h): 57.7 x10_2/uL
KIDNEY_L (3 h): 0.9 g
KIDNEY_R (3 h): 0.9 g
KIDNEY_TOTAL (3 h): 1.9 g
LIVER (3 h): 9.5 g
ALP (3 h): 676.8 IU/L
ALT (3 h): 31.4 IU/L
AST (3 h): 52 IU/L
BUN (3 h): 12.2 mg/dL
CRE (3 h): 0.5 mg/dL
Ca (3 h): 10.7 mg/dL
Cl (3 h): 108.8 meq/L
DBIL (3 h): 0.018 mg/dL
GLC (3 h): 222.8 mg/dL
IP (3 h): 10.5 mg/dL
K (3 h): 4.4 meq/L
LDH (3 h): 166.8 IU/L
Na (3 h): 140.8 meq/L
PL (3 h): 157.6 mg/dL
RALB (3 h): 3.7 g/dL
TBIL (3 h): 0.3 mg/dL
TC (3 h): 92.2 mg/dL
TG (3 h): 34.6 mg/dL
TP (3 h): 5.6 g/dL
gamma-GTP (3 h): 1.4 IU/L
TERMINAL_BW (6 h): 194.4 g
APTT (6 h): 17.2 s
Bas (6 h): 0%
Eos (6 h): 0.4%
Fbg (6 h): 198.5 mg/dL
Hb (6 h): 13.9 g/dL
Ht (6 h): 41.3%
Lym (6 h): 72.6%
MCH (6 h): 21.4 pg
MCHC (6 h): 33.7%
Mono (6 h): 4.4%
Neu (6 h): 22.6%
Plat (6 h): 110.6 x10_4/uL
RBC (6 h): 647.2 x10_4/ul
Ret (6 h): 9.3%
WBC (6 h): 75.5 x10_2/uL
KIDNEY_L (6 h): 0.9 g
KIDNEY_R (6 h): 0.9 g
KIDNEY_TOTAL (6 h): 1.8 g
LIVER (6 h): 8.9 g
ALP (6 h): 742.6 IU/L
ALT (6 h): 30.6 IU/L
AST (6 h): 59.8 IU/L
BUN (6 h): 9.2 mg/dL
CRE (6 h): 0.5 mg/dL
Ca (6 h): 10.1 mg/dL
Cl (6 h): 108.2 meq/L
DBIL (6 h): 0.036 mg/dL
GLC (6 h): 215.6 mg/dL
IP (6 h): 10.1 mg/dL
K (6 h): 4.6 meq/L
LDH (6 h): 179.8 IU/L
Na (6 h): 140 meq/L
PL (6 h): 133.6 mg/dL
RALB (6 h): 3.6 g/dL
TBIL (6 h): 0.3 mg/dL
TC (6 h): 77.8 mg/dL
TG (6 h): 20 mg/dL
TP (6 h): 5.5 g/dL
gamma-GTP (6 h): 1.2 IU/L
TERMINAL_BW (9 h): 194.2 g
APTT (9 h): 16.9 s
Bas (9 h): 0%
Eos (9 h): 1.4%
Fbg (9 h): 216 mg/dL
Hb (9 h): 13.6 g/dL
Ht (9 h): 40.7%
Lym (9 h): 69%
MCH (9 h): 21.9 pg
MCHC (9 h): 33.4%
Mono (9 h): 5.6%
Neu (9 h): 24%
Plat (9 h): 104 x10_4/uL
RBC (9 h): 623 x10_4/ul
Ret (9 h): 8.6%
WBC (9 h): 59.3 x10_2/uL
KIDNEY_L (9 h): 0.9 g
KIDNEY_R (9 h): 0.9 g
KIDNEY_TOTAL (9 h): 1.8 g
LIVER (9 h): 8.3 g
ALP (9 h): 898.8 IU/L
ALT (9 h): 26.8 IU/L
AST (9 h): 53.2 IU/L
BUN (9 h): 10.8 mg/dL
CRE (9 h): 0.5 mg/dL
Ca (9 h): 9.9 mg/dL
Cl (9 h): 108.8 meq/L
DBIL (9 h): 0.012 mg/dL
GLC (9 h): 201.2 mg/dL
IP (9 h): 10.8 mg/dL
K (9 h): 4.8 meq/L
LDH (9 h): 180.8 IU/L
Na (9 h): 140.6 meq/L
PL (9 h): 137.2 mg/dL
RALB (9 h): 3.9 g/dL
TBIL (9 h): 0.3 mg/dL
TC (9 h): 75.8 mg/dL
TG (9 h): 21.4 mg/dL
TP (9 h): 5.6 g/dL
gamma-GTP (9 h): 1.2 IU/L
TERMINAL_BW (24 h): 194.5 g
APTT (24 h): 15.2 s
Bas (24 h): 0%
Eos (24 h): 0.6%
Fbg (24 h): 200.2 mg/dL
Hb (24 h): 14.5 g/dL
Ht (24 h): 43.1%
Lym (24 h): 80.8%
MCH (24 h): 21.4 pg
MCHC (24 h): 33.7%
Mono (24 h): 5.8%
Neu (24 h): 12.8%
Plat (24 h): 118.2 x10_4/uL
RBC (24 h): 680 x10_4/ul
Ret (24 h): 7.7%
WBC (24 h): 59.7 x10_2/uL
KIDNEY_L (24 h): 0.9 g
KIDNEY_R (24 h): 0.9 g
KIDNEY_TOTAL (24 h): 1.8 g
LIVER (24 h): 8.9 g
ALP (24 h): 744.8 IU/L
ALT (24 h): 30.2 IU/L
AST (24 h): 67.8 IU/L
BUN (24 h): 28.6 mg/dL
CRE (24 h): 0.5 mg/dL
Ca (24 h): 11 mg/dL
Cl (24 h): 105 meq/L
DBIL (24 h): 0.044 mg/dL
GLC (24 h): 181 mg/dL
IP (24 h): 9.7 mg/dL
K (24 h): 5.3 meq/L
LDH (24 h): 216.4 IU/L
Na (24 h): 140 meq/L
PL (24 h): 142.8 mg/dL
RALB (24 h): 4.1 g/dL
TBIL (24 h): 0.4 mg/dL
TC (24 h): 77 mg/dL
TG (24 h): 95 mg/dL
TP (24 h): 6.1 g/dL
gamma-GTP (24 h): 1 IU/L
